Measurements: patent publication US20250114337A1, “METHODS FOR VASCULAR REGENERATION AND WOUND TREATMENT” (THE METHODIST HOSPITAL, priority 2022, published 2025)
“Also recorded” adds a separate entry of the source. Read-outs that look alike come from different tables or passages of the source.

Key:
BJ fibroblasts [1] = test: in vitro transdifferentiation of fibroblasts to induced endothelial cells (iECs); type: cell-based, human; conditions: fibroblasts exposed during transdifferentiation protocol
Source text: Innate immune activation is required for transdifferentiation. […] 131 (3): p. 300-9). iECs generated from this protocol manifest high fidelity for endothelial lineage. They incorporate acetylated LDL (FIG. 2B), form tubular networks (FIG. 2C), have similar transcriptomes as genuine endothelial cells, and increase capillary density and perfusion when injected into the ischemic hindlimb of the mouse (FIG. 2D) (Sayed, N., et al., Circulation, 2015. 131 (3): p. 300-9). This protocol can be utilized to study the role of O-GlcNAcylation in transdifferentiation in vitro.
O-GlcNAcylation is required for in vitro transdifferentiation. To define if the elevation of O-GlcNAcylation is required for transdifferentiation, fibroblasts were exposed to Thiamet G (TMG) (an OGA inhibitor that enhances O-GlcNAcylation) or DON (an inhibitor for GFAT that acts upstream in the hexosamine biosynthesis pathway and reduces O-GlcNAcylation). The number of iECs generated during transdifferentiation is increased when fibroblasts are exposed to TMG and decreased when exposed to DON (FIG. 5A). […] The role of O-GlcNAcylation of specific epigenetic regulars e.g., HIRA during transdifferentiation can also be addressed.
To define if the elevation of O-GlcNAcylation is required for transdifferentiation, inhibitors of O-GlcNAcylation including OSMI (an inhibitor for OGT) and DON (an inhibitor for GFAT that acts upstream in the hexosamine biosynthesis pathway and reduces O-GlcNAcylation) or an activator of O-GlcNAcylation. Thiamet G (TMG) (an OGA inhibitor that enhances O-GlcNAcylation), were delivered to BJ fibroblasts undergoing transdifferentiation. The number of CD31 expressing iECs generated during transdifferentiation decreases when exposed to OSMI or DON and increases when fibroblasts are exposed to TMG (FIG. 17B). Then OGT or OGA were knocked down using shRNA in the BJ fibroblasts (FIG. 17C) and performed transdifferentiation protocol in vitro.

[2] = tested on: ischemic hindlimb mice model; test: hindlimb ischemia recovery in WT C57BL/6 mice, laser doppler imaging; type: in vivo, mouse; conditions: TMG 10 mg/kg 0, 1, 2 days post-surgery; older mice (around 20 weeks)
Procedure: O-GlcNAcylation manipulations regulated recovery from tissue ischemia. To determine if the change in O-GlcNAcylation can modulate limb ischemia recovery, and contributes to vascular recovery, WT C57BL/6 mice were treated with the O-GlcNAcylation inhibitor, OSMI4, or O-GlcNAcylation enhancer, TMG 0, 1, 2 days post-surgery. Age is an important factor that determines recovery, and younger mice are known to have a more robust angiogenic response as compared with older mice. Accordingly, younger mice (between 8 to 12 weeks) were used to assess the impairment of angiogenesis by OSMI (which reduces O-GlcNAcylation). Older mice (around 20 weeks) were used to assess the enhancement of angiogenesis by TMG (which increases O-GlcNAcylation). […] It will be determined whether this beneficial effect is mediated by increased DNA accessibility and enhanced transdifferentiation.
To determine if O-GlcNAcylation manipulations can modulate the overall effect of vascular recovery from limb ischemia. WT C57BL/6 mice were treated with the O-GlcNAcylation inhibitor. OSMI4 (10 mg/kg), or O-GlcNAcylation enhancer. TMG (10 mg/kg) 0, 1, 2 days post-surgery (FIG. 19A).

ischemic hindlimb model = ischemic hindlimb model in fibroblast lineage tracing Fsp1-Cre: R26R-EYFP mice; type: in vivo, mouse; conditions: ischemic hindlimb
Procedure: Using established transdifferentiation protocol and metabolomics profiling to assess the global metabolic changes during transdifferentiation. […] To determine the role of this metabolite in transdifferentiation, the effect of Thiamet G was assessed, an inhibitor of OGA, which enhances O-GlcNAcylation. Thiamet G increased transdifferentiation efficiency in vitro. In a fibroblast lineage tracing mice, Fsp1-Cre: R26R-EYFP mice, Thiamet G increased tissue O-glycnacylation, increased capillary density and limb perfusion, and increased the number of fibroblasts transdifferentiating into endothelial cells (i.e. FSP+CD31+ cell) in an ischemic hindlimb model.
Angiogenic transdifferentiation in limb ischemia. A fibroblast lineage tracing mouse model (Fsp1-Cre: R26R-EYFP) was used to detect transdifferentiation in vivo in a murine model of limb ischemia (Meng, S., et al., Circulation, 2020. 142 (17): p. 1647-1662). […] This population is abolished when the mice are treated with anti-inflammatory drugs, such as dexamethasone. Intriguingly, the disappearance of these cells is associated with a reduction in perfusion recovery and worsening clinical scores. Similar results are achieved when inflammatory signaling is impaired, as in Fsp1-Cre: Rela flox/flox mice. In these animals, NFκB signaling is blocked in the Fsp1+fibroblasts, associated with a dramatic reduction in transdifferentiated fibroblasts (i.e. YFP+CD144+ cells), and impaired perfusion (Meng. S., et al., Circulation, 2020. 142 (17): p. 1647-1662). […] Cluster 8 produced angiogenic cytokines, whereas Cluster 5 expressed genes associated with EC identity (i.e CD144). But only Cluster 5 could generate EC-like networks in Matrigel whereas other fibroblasts, including Cluster 8 fibroblasts, formed nodal structures typical of fibroblasts in Matrigel. The data support the idea that transdifferentiation may occur in vivo with tissue ischemia, and is dependent on inflammatory signaling. This model can be used to study the contribution of O-GlcNAcylation in transdifferentiation and limb ischemia recovery in vivo. A similar lineage tracing approach can be used with tamoxifen-inducible Col1A2-Cre/ERT: R26R-tdTomato mouse strain to study the contribution of O-GlcNAcylation in transdifferentiation and limb ischemia recovery in vivo.
To determine if O-GlcNAcylation enhances revascularization through transdifferentiation, fibroblasts lineage tracing Fsp1-Cre: R26R-EYFP mice strain were utilized where it was previously observed the in situ transdifferentiation phenomenon (FIG. 20A). In this model, all the fibroblasts expressing Fsp1 (fibroblast-specific protein1) are marked with YFP. With this model, a significant increase in the FSP-expressing cell progeny in the ischemic limb was identified compared with the sham-operated limb 3 days after the femoral artery ligation was perform (FIG. 20A) and compare the YFP+ cells over the different time points (FIG. 20A). The percentage of the YFP+CD31+CD11b-cell population which is considered the transdifferentiation population was analyzed further. […] To determine the role of the O-GlcNAcylation on the transdifferentiation, the Fsp1-Cre: R26R-EYFP mice that are undergoing vascular recovery with OSMI were treated, and the transdifferentiation population in the limb muscle tissue 7 days post-surgery was analyzed.

O-GlcNAcylated proteins = test: Click-it O-GlcNAc enzymatic labeling and detection assay; type: cell-based; conditions: 3 days vs vehicle, nuclear, cytoplasmic, whole-cell lysates
Procedure: (§1) Cellular O-GlcNAcylation is elevated during transdifferentiation. […] TLR3 activation increases DNA accessibility and facilitates transdifferentiation. Other forms of inflammatory activation also increase DNA accessibility (as with RIG1 activation). […] To determine if the increase in UDP-GlcNAc is associated with an increase in O-GlcNAcylation, cells were treated with PolyI:C or vehicle for 3 days, then the O-GlcNAcylated proteins in the nuclear (N), cytoplasmic (C), or whole-cell (W) lysates were enzymatically labeled with azido-modified galactose (GalNAz), which were further detected by click-it chemistry using a biotinylated alkyne and Western.
To determine if the increase in UDP-GlcNAc is associated with an increase in O-GlcNAcylation, cells were treated with Poly I:C or vehicle for 3 days, then the O-GlcNAcylated proteins in the nuclear (N), cytoplasmic (C), or whole-cell (W) lysates were enzymatically labeled with azido-modified galactose (GalNAz), which were further detected by click-it chemistry using a biotinylated alkyne and Western.

H3.3 deposition = test: H3.3-SNAP tagging, quench-chase-pulse TMR-Star labeling; type: cell-based; conditions: vs control
Source text: To identify the role of O-GlcNAcylation of histone variant h3.3 chaperone protein, HIRA, on transdifferentiation. The effects of O-GlcNAcylation on proteins that may be involved in the epigenetic regulation of transdifferentiation can be assessed. Nucleosome turnover is known to be tightly interrelated with DNA accessibility, and histone variant h3.3 is a hallmark of regulatory regions in the mammalian genome and is required to establish open chromatins. HIRA is the chaperone for h3.3, it forms a complex with other subunits, including ASF1. UBN, and CABIN, and is responsible for h3.3 deposition on the chromatin. OGT interacts with and O-GlcNAcylates HIRA, both of which are critical for the formation of the HIRA-h3.3 complex and h3.3 deposition and its dependent gene activation. […] The role of HIRA in transdifferentiation with fibroblasts that have HIRA knocked down or overexpressed can be determined. […] Thereafter, the de novo deposited SNAP-h3.3 will be pulse-labeled with the TMR-Star, which is a readily detectable and quantifiable red-fluorescent substrate. […]
To test whether innate immune activation enhances the H3.3 deposition in the chromatin, the H3.3-SNAP tagging system was generated where the newly synthesized H3.3 will be detected by fluorescent TMR-Star labeling with quench-chase-pulse strategy.

UDP-GlcNAc = test: LC-MS-based metabolomic analysis of fibroblasts undergoing transdifferentiation; type: cell-based, human; conditions: 30 ng/ml Poly I:C with induction medium, 0, 1, 3 days
Procedure: as §1
To profile the global metabolic changes during transdifferentiation, untargeted metabolomics with BJ human fibroblast cells undergoing transdifferentiation protocol was performed and treated with 30 ng/ml Poly I:C with the induction medium for 0, 1, and 3 days. Over 100 metabolites were identified from the LC-MS-based metabolomic analysis. […] UDP-GlcNAc is the substrate for O-GlcNAcylation and is the end-product of the hexosamine biosynthesis pathway (HBP).

BJ fibroblasts [3] = conditions: PolyI:C alone, without endothelial growth factors; cited from earlier work
HIRA-H3.3 complex = test: immunoprecipitation using HIRA antibody; type: cell-based; conditions: after Poly I:C treatment
Source text: The histone variant h3.3 is a replacement for its canonical form of h3.1 and h3.2 in the nucleosome. Its deposition is usually associated with transcription activation and enhanced DNA accessibility. The complex that is responsible for h3.3 deposition is called HIRA complex which consists of HIRA. UBN, and cabin as the histone chaperone proteins. The HIRA O-GlcNAcylation is known to be critical for its function in H3.3 deposition. During the vascular recovery in the WT mice, the level of HIRA complex subunits, including ASFIA. HIRA. UBN, as well as the H3.3 deposition are increased (FIG. 22A). The HIRA-H3.3 pathway in the fibroblast progeny cells is activated, especially in the limbs recovering from ischemia 3- and 7-days post-surgery compared with the non-YFP+ cells (FIG. 22B). […] An in vitro system to test whether the HIRA-H3.3 pathway is activated during transdifferentiation was used.

accessible chromatin = test: ATAC seq chromatin accessibility in fibroblasts; type: cell-based
Source text: Chromatin accessibility mapping is a powerful approach to identify sites of open chromatin (i.e. to infer sites of active transcription). In ATAC-seq, a Tn5 transposase inserts sequencing adapters into accessible DNA (‘tagmentation’). […] In the right panel, exposure of the fibroblasts to polyIC increases the average length (KB) of open chromatin.
Identify the role of O-GlcNAcylation in DNA accessibility. […] However, it is unknown if this occurs during transdifferentiation of fibroblasts to iECs. […] To test if O-GlcNAcylation controls this process.

MEFs = conditions: Chanda et al. 2019; cited from earlier work

Compound	iEC yield (number of CD31 expressing iECs generated during transdifferentiation) (BJ fibroblasts [1])	recovery of blood flow post femoral artery ligation (revascularization) [2]	capillary density (ischemic hindlimb model)	limb perfusion (ischemic hindlimb model)	number of fibroblasts transdifferentiating into endothelial cells (FSP+CD31+ cell) (ischemic hindlimb model)	tissue O-glycnacylation (ischemic hindlimb model)	iEC yield (number of CD31 expressing iECs generated during transdifferentiation) (BJ fibroblasts [1]; listed as Thiamet G)	O-GlcNAcylation (O-GlcNAcylated proteins)	O-GlcNAcylation (O-GlcNAcylated proteins; listed as Poly I:C)	H3.3 deposition (H3.3 deposition)	UDP-GlcNAc level (UDP-GlcNAc)	UDP-GlcNAc level (UDP-GlcNAc; listed as Poly I:C)	transdifferentiation of fibroblasts to endothelial cells (BJ fibroblasts [3])	HIRA interaction with UBN and H3.3 (HIRA-H3.3 complex)	chromatin accessibility (open chromatin around TSS) (accessible chromatin)	chromatin accessibility (open chromatin around TSS) (accessible chromatin; listed as polyIC)	DNA accessibility (MEFs)
[N-]=[N+]=CC(=O)CC[C@H](N)C(=O)O [DON]	decreases; also recorded: impair	–	–	–	–	–	–	–	–	–	–	–	–	–	–	–	–
CCNC1=NC2C(OC(CO)C(O)C2O)S1 (stereo not drawn) [TMG, 2-(ethylamino)-5-(hydroxymethyl)-5,6,7,7a-tetrahydro-3aH-pyrano[3,2-d][1,3]thiazole-6,7-diol]	increases	enhanced recovery; also recorded: enhances	increased	increased	increased	increased	increased	–	–	–	–	–	–	–	–	–	–
Polyinosinic:polycytidylic acid [PolyI:C]	–	–	–	–	–	–	–	elevation primarily occurs in nuclear proteins; also recorded: augmentation	elevation	enhances	highly elevated; also recorded: up-regulated	consistently increases	does not occur	enhanced	more accessible chromatin regions	increases	enhances
